# Publication PMC4086519, “Anti-Trichophyton Activity of Protocatechuates and Their Synergism with Fluconazole” (Evidence-based Complementary and Alternative Medicine : eCAM, 2014)
# Where two headings read alike, the source gives them in different places.
# Key:
# Format in all cases: cell-based
# Trichophyton rubrum [1] = assay: Minimum fungicide concentration (MFC)
# Procedure: (§1) A qualitative analysis of the fungal viability was performed by transferring a portion of the wells to a plate with Sabouraud (Difco, BD Biosciences) medium and incubating it at 35°C for the time determined for each fungal agent. […] A visual reading was performed to confirm the death or growth inhibition provided by fluconazole and the sixteen semisynthetic substances derived from protocatechuic acid.
# [2] = system: Trichophyton mentagrophytes; assay: Minimum fungicide concentration (MFC)
# Procedure: as §1
# Trichophyton rubrum [3] = assay: Broth microdilution MIC (CLSI M38-A2, modified)
# Procedure: (§2) To evaluate its antifungal activity, […] of dermatophytes were tested: two clinical strains of Trichophyton rubrum (Tr1 and Tr2), Trichophyton rubrum ATCC MYA 3108, two clinical strains of Trichophyton mentagrophytes (Tm1 and Tm2), and Trichophyton mentagrophytes ATCC 40131 (Tm3). The microorganisms were obtained from the collection of the Clinical Mycology Laboratory of the Department of Clinical Analyses at the School of Pharmaceutical Sciences of Universidade Estadual Paulista (UNESP). The strains were cultivated on Sabouraud dextrose agar (Difco, BD Biosciences) and incubated at 28°C for 7-15 days. For all experiments, the strains were cultivated on Potato Dextrose Agar (Difco, BD Biosciences) and incubated at 28°C as described above or until sporulation. The dilution of the synthetic compounds was performed with DMSO (Synth, Diadema, Sao Paulo, Brazil) as described by Scorzoni et al.. […] The antifungal drugs were diluted according to the CLSI […]-A2 document. Stock solutions of Fluconazole (Sigma-Aldrich, St. Louis, MO, USA) were prepared, considering its power. Serial twofold dilutions were prepared according to the recommendations of Zhang and collaborators, with some modifications. The antifungal activity tests were performed using the broth microdilution method as described in […]-A2, a document produced by the Clinical and Laboratory Standards Institute (CLSI, 2008), with modifications. The medium used was RPMI 1640 with L-glutamine (Sigma-Aldrich, St. Louis, MO, USA) buffered to pH 7.0 with 0.165 M morpholinepropanesulfonic acid (MOPS) (Sigma-Aldrich, St. Louis, MO, USA), supplemented with 2% glucose. […] The suspension of conidia was then transferred to small sterile test tubes where they remained for 40 minutes to separate the microconidia, which were lighter and therefore present in the supernatant. […] These suspensions were diluted in RPMI 1640 (Sigma-Aldrich, St. […] Positive (100 μL of RPMI medium with 100 μL of inoculum) and negative (200 μL of RPMI) controls were included in all experiments. The plates were incubated with agitation at 35°C for 7 days. The MIC reading was performed by spectrophotometry at 490 nm.
# [4] = system: Trichophyton mentagrophytes; assay: Broth microdilution MIC (CLSI M38-A2, modified)
# Procedure: as §2
# Trichophyton rubrum [5] = assay: Checkerboard synergism assay with fluconazole
# Procedure: (§3) The drug activity was assessed using a checkerboard method derived from a standardised procedure established by the National Committee for Clinical Laboratory Standards ([…]-A2). Briefly, the test was performed on the same medium used for susceptibility testing. Volumes of 50 μL of each drug in a concentration four times the final concentration were dispensed in 96-well plates ([…], Switzerland). To each well, 100 μL of the fungal suspension was added to produce a final concentration of 5.0 × 10^3 CFU/mL. As a negative control, we used 200 μL of RPMI, while as a positive control, we used 100 μL of RPMI medium with 100 μL of inoculum. The plates were incubated at 35°C, and the reading was completed after 168 hours. We conducted visual and spectrophotometric readings at 490 nm. To determine the effect of combinatorial fractions, we calculated the fractional inhibitory concentration (FIC). The FIC was calculated by taking the MIC of the substance in combination/MIC of the substance alone. The sum of the fractional inhibitory concentration (FIC) of each substance consists of the fractional inhibitory concentration index: (the MIC of drug A in combination/the MIC of drug A alone) + (the MIC of drug B in combination/the MIC of drug B alone).
# [6] = system: Trichophyton mentagrophytes; assay: Checkerboard synergism assay with fluconazole; details: for MIC: Trichophyton mentagrophytes, read-out: MIC, substances alone; for MIC / MIC, substances alone: checkerboard, 168 hours
# Procedure: as §3
# [7] = system: NOK (oral human keratinocyte) cell lines; assay: Sulphorhodamine B cytotoxicity assay; details: NOK cells, 24 hours
# Procedure: The cytotoxicity of sixteen semisynthetic compounds derived from protocatechuic acid was assessed using a sulphorhodamine B assay in NOK (oral human keratinocyte) cell lines obtained from the American Type Culture Collection (Manassas, VA, USA). The strains were maintained in bottles appropriate for cell culture with keratinocyte serum free medium (Gibco, Life Technologies) and incubated in standard conditions of 37°C and 5% CO2. Cell concentrations ranging from 2.5 to 5.0 × 10^4 cells/mL were used for the formation of cell monolayers. The concentrations of pure substances were kept in contact with the cells for 24 hours. After the incubation period, the cells were treated with the sulphorhodamine B reagent (Sigma-Aldrich, St. Louis, MO, USA) as previously described by Skehan et al., with some modifications.
# [8] = Tr2, T. rubrum clinical isolate
# [9] = Tr2, T. rubrum clinical isolate, 35°C, 7 days
# [10] = Tr3, T. rubrum ATCC MYA 3108, 35°C, 7 days
# [11] = Tm2, clinical isolate, 35°C, 7 days
# [12] = Tr1, T. rubrum clinical isolate
# [13] = Tm3, T. mentagrophytes ATCC 40131
# [14] = Tr1, T. rubrum clinical isolate, 35°C, 7 days
# [15] = Tm1, clinical isolate, 35°C, 7 days
# [16] = Tm3, T. mentagrophytes ATCC 40131, 35°C, 7 days
SMILES,MFC (Trichophyton rubrum [1]; [8]),"MFC (Trichophyton rubrum [1]; Tr3, T. rubrum ATCC MYA 3108)","MFC ([2]; Tm2, clinical isolate)",MIC (Trichophyton rubrum [3]; [9]),MIC (Trichophyton rubrum [3]; [10]),"MIC [4, 11]",MFC (Trichophyton rubrum [1]; [12]),"MFC ([2]; Tm1, clinical isolate)","MFC [2, 13]",MIC (Trichophyton rubrum [3]; [14]),"MIC [4, 15]","MIC [4, 16]",other results
"CC(=O)Oc1ccc(C(=O)O)cc1OC(C)=O [Acid 3.4 diacetoxybenzoic, 3,4-diacetoxybenzoic acid]",–,–,–,–,–,–,–,–,–,–,–,–,"MFC (Trichophyton rubrum [1]; Trichophyton rubrum, Tr1, T. rubrum clinical isolate, read-out: MFC): 250 µg/mL; MFC (Trichophyton rubrum [1]; Trichophyton rubrum, Tr2, T. rubrum clinical isolate, read-out: MFC): > 250 µg/mL; MFC (Trichophyton rubrum [1]; Trichophyton rubrum, Tr3, T. rubrum ATCC MYA 3108, read-out: MFC): > 250 µg/mL; MFC ([2]; Trichophyton mentagrophytes, ATCC40131, Tm3, T. mentagrophytes ATCC 40131, read-out: MFC): 250 µg/mL; MFC ([2]; Trichophyton mentagrophytes, Tm1, clinical isolate, read-out: MFC): 250 µg/mL; MFC ([2]; Trichophyton mentagrophytes, Tm2, clinical isolate, read-out: MFC): > 250 µg/mL; MIC (Trichophyton rubrum [3]; Trichophyton rubrum, 168 h, Tr1, T. rubrum clinical isolate, 35°C, 7 days, read-out: MIC): 250 µg/mL; MIC (Trichophyton rubrum [3]; Trichophyton rubrum, 168 h, Tr2, T. rubrum clinical isolate, 35°C, 7 days, read-out: MIC): > 250 µg/mL; MIC (Trichophyton rubrum [3]; Trichophyton rubrum, 168 h, Tr3, T. rubrum ATCC MYA 3108, 35°C, 7 days, read-out: MIC): > 250 µg/mL; MIC ([4]; Trichophyton mentagrophytes, 168 h, Tm1, clinical isolate, 35°C, 7 days, read-out: MIC): 250 µg/mL; MIC ([4]; Trichophyton mentagrophytes, 168 h, Tm2, clinical isolate, 35°C, 7 days, read-out: MIC): > 250 µg/mL; MIC ([4]; Trichophyton mentagrophytes, ATCC40131, 168 h, Tm3, T. mentagrophytes ATCC 40131, 35°C, 7 days, read-out: MIC): 250 µg/mL"
"O=C(O)c1ccc(O)c(O)c1 [Acid protocatechuic, Protocatechuic acid (3,4-dihydroxybenzoic)]",250 µg/mL,250 µg/mL,> 250 µg/mL,250 µg/mL,250 µg/mL,250 µg/mL,–,–,–,–,–,–,"MFC (Trichophyton rubrum [1]; Trichophyton rubrum): 250 µg/mL; MFC ([2]; Trichophyton mentagrophytes): > 250 µg/mL; MFC ([2]; Trichophyton mentagrophytes, ATCC40131): 125 µg/mL; MIC (Trichophyton rubrum [3]; Trichophyton rubrum, 168 h): 250 µg/mL; MIC ([4]; Trichophyton mentagrophytes, 168 h): 250 µg/mL; MIC ([4]; Trichophyton mentagrophytes, ATCC40131, 168 h): 125 µg/mL"
"OC(Cn1cncn1)(Cn1cncn1)c1ccc(F)cc1F [FLU, Fluconazole]",–,–,–,–,–,–,–,–,–,–,–,–,"MIC (Trichophyton rubrum [5]; Trichophyton rubrum, Tr1, checkerboard, 168 hours, read-out: MIC, substances alone): 2 µg/mL; MIC ([6]; ATCC40131, Tm3 (ATCC 40131)): 0.5 µg/mL; MIC ([6]; Tm1): 1 µg/mL"
CCCCOC(=O)c1ccc(O)c(O)c1 [Protocatechuate butyl],7.8 µg/mL,7.8 µg/mL,15.6 µg/mL,7.8 µg/mL,7.8 µg/mL,15.6 µg/mL,15.6 µg/mL,62.5 µg/mL,15.6 µg/mL,15.6 µg/mL,7.80 µg/mL,15.6 µg/mL,–
CCCCCCCCCCOC(=O)c1ccc(O)c(O)c1 [Protocatechuate decyl],3.9 µg/mL,7.8 µg/mL,3.9 µg/mL,3.9 µg/mL,3.90 µg/mL,3.9 µg/mL,3.9 µg/mL,7.8 µg/mL,15.6 µg/mL,3.9 µg/mL,7.8 µg/mL,3.90 µg/mL,–
CCCCCCCCCCCCOC(=O)c1ccc(O)c(O)c1 [Protocatechuate dodecyl],125 µg/mL,250 µg/mL,62.5 µg/mL,125 µg/mL,> 250 µg/mL,62.5 µg/mL,> 250 µg/mL,250 µg/mL,62.5 µg/mL,> 250 µg/mL,250 µg/mL,31.2 µg/mL,–
CCOC(=O)c1ccc(O)c(O)c1 [Protocatechuate ethyl],31.2 µg/mL,31.2 µg/mL,31.2 µg/mL,31.2 µg/mL,31.2 µg/mL,31.2 µg/mL,31.2 µg/mL,62.5 µg/mL,125 µg/mL,31.2 µg/mL,31.2 µg/mL,31.2 µg/mL,–
"CCCCCCCOC(=O)c1ccc(O)c(O)c1 [Protocatechuate heptyl, protocatechuate heptyl]",1.95 µg/mL,1.95 µg/mL,0.97 µg/mL,1.95 µg/mL,1.95 µg/mL,0.97 µg/mL,1.95 µg/mL,3.9 µg/mL,3.9 µg/mL,1.95 µg/mL,3.9 µg/mL,3.9 µg/mL,"FIC index (Trichophyton rubrum [5]): 1.0; association type (in words) (Trichophyton rubrum [5]): additive; MIC, substances alone (Trichophyton rubrum [5]; Tr1, checkerboard, 168 hours): 1.9 µg/mL; MIC of the protocatechuate, substances combined [6]: 0.03 µg/mL; association type (in words) [6]: synergistic; reduction in the MIC of fluconazole [6]: fourfold; MIC, substances alone ([6]; Tm1): 3.9 µg/mL; MIC, substances alone ([6]; Tm3 (ATCC 40131)): 3.9 µg/mL; FIC index ([6]; listed as 9): 0.48; reduction in the MIC of fluconazole ([6]; listed as 9): four-; Cytotoxicity IC50 [7]: 78.1 µg/mL"
CCCCCCCCCCCCCCCCOC(=O)c1ccc(O)c(O)c1 [Protocatechuate hexadecyl],> 250 µg/mL,> 250 µg/mL,> 250 µg/mL,> 250 µg/mL,> 250 µg/mL,> 250 µg/mL,> 250 µg/mL,> 250 µg/mL,> 250 µg/mL,> 250 µg/mL,> 250 µg/mL,> 250 µg/mL,–
COC(=O)c1ccc(O)c(O)c1 [Protocatechuate methyl],31.2 µg/mL,62.5 µg/mL,62.5 µg/mL,31.2 µg/mL,31.2 µg/mL,62.5 µg/mL,62.5 µg/mL,250 µg/mL,62.5 µg/mL,62.5 µg/mL,62.5 µg/mL,31.2 µg/mL,–
CCCCCCCCCCCCCCCCCCOC(=O)c1ccc(O)c(O)c1 [Protocatechuate octadecyl],> 250 µg/mL,> 250 µg/mL,> 250 µg/mL,> 250 µg/mL,> 250 µg/mL,> 250 µg/mL,> 250 µg/mL,> 250 µg/mL,> 250 µg/mL,> 250 µg/mL,> 250 µg/mL,> 250 µg/mL,–
CCCOC(=O)c1ccc(O)c(O)c1 [Protocatechuate propyl],31.2 µg/mL,31.2 µg/mL,62.5 µg/mL,31.2 µg/mL,31.2 µg/mL,62.5 µg/mL,15.6 µg/mL,62.5 µg/mL,31.2 µg/mL,15.6 µg/mL,15.6 µg/mL,15.6 µg/mL,–
CCCCCCCCCCCCCCOC(=O)c1ccc(O)c(O)c1 [Protocatechuate tetradecyl],125 µg/mL,> 250 µg/mL,250 µg/mL,125 µg/mL,> 250 µg/mL,125 µg/mL,> 250 µg/mL,> 250 µg/mL,> 250 µg/mL,> 250 µg/mL,> 250 µg/mL,> 250 µg/mL,–
